# Reference: ChEMBL document CHEMBL1201862, “PubChem BioAssay data set” (2004)
# Calls of active or inactive are those of the source.
# Tests used:
# [1] = biological target: T1, Rac GTPase-activating protein 1 (Homo sapiens, UniProt Q9H0H5); assay: blockers of MgcRacGAP-driven Rac1 GTP hydrolysis – biochemical, ADP Hunter fluorescence, primary and confirmatory, confirmation (AID 624330); type: functional
# T1 sequence (Q9H0H5 whole entry): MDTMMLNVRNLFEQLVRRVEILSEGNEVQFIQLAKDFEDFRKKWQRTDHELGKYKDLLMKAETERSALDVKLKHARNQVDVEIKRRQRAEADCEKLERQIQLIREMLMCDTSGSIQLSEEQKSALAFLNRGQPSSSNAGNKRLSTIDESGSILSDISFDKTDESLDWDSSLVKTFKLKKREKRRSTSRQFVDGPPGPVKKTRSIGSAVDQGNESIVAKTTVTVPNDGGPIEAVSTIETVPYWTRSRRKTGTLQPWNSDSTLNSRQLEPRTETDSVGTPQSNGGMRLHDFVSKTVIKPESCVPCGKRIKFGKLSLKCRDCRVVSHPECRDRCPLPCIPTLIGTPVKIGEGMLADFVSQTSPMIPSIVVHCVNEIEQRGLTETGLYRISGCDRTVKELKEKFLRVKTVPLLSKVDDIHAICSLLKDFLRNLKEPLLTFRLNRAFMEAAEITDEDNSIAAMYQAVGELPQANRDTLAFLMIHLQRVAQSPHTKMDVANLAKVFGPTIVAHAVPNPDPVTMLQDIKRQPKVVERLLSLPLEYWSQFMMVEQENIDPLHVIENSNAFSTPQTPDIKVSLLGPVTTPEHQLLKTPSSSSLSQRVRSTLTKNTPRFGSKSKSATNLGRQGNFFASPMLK
# [2] = test system: SN12K1; assay: cells; type: functional; conditions: Homo sapiens
# [3] = test system: P388/ADR; assay: cells; type: functional; conditions: Mus musculus
# [4] = test system: P388; assay: cells; type: functional; conditions: Mus musculus
# [5] = biological target: T2, Corticotropin-releasing factor receptor 2/Corticotropin-releasing factor-binding protein (Homo sapiens, UniProt P24387+Q13324); assay: Dose Response confirmation of uHTS hits for small molecule antagonists of the CRF-binding protein and CRF-R2 receptor complex.; type: functional; conditions: read-out: IC50_Mean
# T2 sequence (Q13324 whole entry): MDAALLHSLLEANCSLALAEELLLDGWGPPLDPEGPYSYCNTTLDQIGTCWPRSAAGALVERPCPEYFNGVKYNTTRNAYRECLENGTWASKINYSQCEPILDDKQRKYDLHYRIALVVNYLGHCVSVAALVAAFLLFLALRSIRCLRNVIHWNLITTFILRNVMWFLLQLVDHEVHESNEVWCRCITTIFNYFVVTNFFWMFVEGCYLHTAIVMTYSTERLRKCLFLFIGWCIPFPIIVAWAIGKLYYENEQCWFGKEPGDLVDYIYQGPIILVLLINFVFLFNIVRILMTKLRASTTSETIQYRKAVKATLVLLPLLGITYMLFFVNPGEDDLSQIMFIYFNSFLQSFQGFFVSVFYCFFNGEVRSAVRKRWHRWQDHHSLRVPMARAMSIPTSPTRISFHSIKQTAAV
# T2 sequence (P24387 whole entry): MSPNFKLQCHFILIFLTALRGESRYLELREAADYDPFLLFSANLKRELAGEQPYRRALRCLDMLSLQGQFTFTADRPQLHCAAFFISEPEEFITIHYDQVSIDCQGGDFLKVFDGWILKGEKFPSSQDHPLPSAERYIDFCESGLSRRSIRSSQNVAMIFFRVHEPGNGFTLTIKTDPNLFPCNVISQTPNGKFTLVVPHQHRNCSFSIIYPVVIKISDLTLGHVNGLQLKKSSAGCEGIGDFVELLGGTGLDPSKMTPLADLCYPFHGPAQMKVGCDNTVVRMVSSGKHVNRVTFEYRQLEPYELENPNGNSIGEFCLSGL
# [6] = biological target: Cytochrome P450 3A4 (Homo sapiens, UniProt P08684);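 further: CYP3A4 tested as one member of a cytochrome P450 panel screen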
# [7] = biological target: T2, Corticotropin-releasing factor receptor 2/Corticotropin-releasing factor-binding protein; assay: activators of CRF receptor 2 with binding protein – uHTS hits, confirmation (AID 602473); type: functional; conditions: read-out: EC50_Mean
# [8] = biological target: Cytochrome P450 2D6 (Homo sapiens, UniProt P10635);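 further: CYP2D6 member of a cytochrome P450 panel assay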
# [9] = viability of uninfected HEp-2 cells – cell-based, HTS, cytotoxicity control for RSV inhibitor project, dose response (AID 2410); type: functional; conditions: human respiratory syncytial virus
# [10] = test system: INS1; assay: INS-1E survival protection against cytokine death – cell-based, luminescence, retest, dose response (AID 449756); type: functional; conditions: Rattus norvegicus;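 further: cell death triggered by IL-1 beta plus TNF-alpha plus IFN-gamma mixture; protective hits raise ATP signal compared with cytokine alone wells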
# [11] = cells; type: functional
# [12] = Luminescence Cell-Based Dose Retest to Confirm Inhibitors of Cancer Stem Cells. [Related pubchem assays (depositor defined):AID2717, AID2721]; type: functional; conditions: Homo sapiens
# [13] = biological target: T3, Cytochrome P450 1A2 (Homo sapiens, UniProt P05177);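 further: PubChem cytochrome P450 panel assay, CYP1A2 panel member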
# T3 sequence (P05177 whole entry): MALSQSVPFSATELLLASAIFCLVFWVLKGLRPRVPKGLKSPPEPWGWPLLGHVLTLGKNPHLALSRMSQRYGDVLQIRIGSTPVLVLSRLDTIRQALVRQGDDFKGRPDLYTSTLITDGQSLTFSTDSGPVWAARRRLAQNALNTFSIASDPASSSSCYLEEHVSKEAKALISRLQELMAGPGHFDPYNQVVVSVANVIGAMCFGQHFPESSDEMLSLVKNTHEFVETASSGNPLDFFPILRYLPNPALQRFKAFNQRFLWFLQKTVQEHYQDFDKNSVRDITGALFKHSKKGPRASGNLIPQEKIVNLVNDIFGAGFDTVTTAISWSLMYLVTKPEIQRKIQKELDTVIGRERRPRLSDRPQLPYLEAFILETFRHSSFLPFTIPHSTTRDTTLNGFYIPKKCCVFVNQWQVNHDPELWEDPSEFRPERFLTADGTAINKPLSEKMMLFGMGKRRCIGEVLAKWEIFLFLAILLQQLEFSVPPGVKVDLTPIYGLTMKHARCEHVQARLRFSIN
# Chain of Cytochrome P450 3A4 (P08684 whole entry): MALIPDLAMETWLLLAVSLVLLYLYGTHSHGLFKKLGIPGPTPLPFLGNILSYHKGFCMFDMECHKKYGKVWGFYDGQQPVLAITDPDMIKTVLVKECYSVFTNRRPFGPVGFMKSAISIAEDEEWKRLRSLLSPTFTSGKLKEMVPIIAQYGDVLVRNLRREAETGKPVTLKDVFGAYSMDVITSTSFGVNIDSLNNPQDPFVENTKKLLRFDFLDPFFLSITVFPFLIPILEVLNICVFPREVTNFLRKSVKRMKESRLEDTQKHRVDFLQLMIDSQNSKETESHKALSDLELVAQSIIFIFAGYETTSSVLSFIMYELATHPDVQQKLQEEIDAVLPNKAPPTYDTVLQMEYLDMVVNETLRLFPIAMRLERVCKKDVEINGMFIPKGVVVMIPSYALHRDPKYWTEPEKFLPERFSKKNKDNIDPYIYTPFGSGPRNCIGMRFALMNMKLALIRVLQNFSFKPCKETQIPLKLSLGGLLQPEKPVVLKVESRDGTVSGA
# Chain of Cytochrome P450 2D6 (P10635 whole entry): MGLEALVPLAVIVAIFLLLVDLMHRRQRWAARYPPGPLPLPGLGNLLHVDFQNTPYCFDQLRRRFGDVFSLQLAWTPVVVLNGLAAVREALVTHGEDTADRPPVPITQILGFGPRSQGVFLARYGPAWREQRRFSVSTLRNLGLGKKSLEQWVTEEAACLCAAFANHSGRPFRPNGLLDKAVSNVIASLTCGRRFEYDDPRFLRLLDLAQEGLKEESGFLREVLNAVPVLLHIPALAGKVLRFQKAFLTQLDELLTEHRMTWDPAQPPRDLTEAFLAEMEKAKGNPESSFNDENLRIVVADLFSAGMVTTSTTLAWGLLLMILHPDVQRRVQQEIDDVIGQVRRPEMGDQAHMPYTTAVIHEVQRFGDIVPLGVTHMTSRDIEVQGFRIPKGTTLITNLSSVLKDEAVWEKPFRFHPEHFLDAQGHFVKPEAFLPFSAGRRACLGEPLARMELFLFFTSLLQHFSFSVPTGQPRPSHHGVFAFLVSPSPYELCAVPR
smiles,measurement,setting,value
COc1cccc(OC)c1NC(=O)CN1CCN(C)CC1,IC50,[1],100 µM (active)
CC1C(O)C2(Oc3cc4c(c5c3[C@@H](CC5O)[C@H]2C)CCC2Cc3nc5c(nc3C[C@@]42C)CC2CCC3C4=C[C@H]6O[C@@]7(O[C@@](C)(CO)C[C@@H]7O)C(C)[C@@]6(O)[C@]4(C)[C@@H](O)CC3[C@]2(C)C5)OC1(C)C (stereo not given in full),GI50,[2],0.0278 µM (active)
same,GI50,[3],0.52 µM (active)
same,GI50,[4],0.0278 µM (active)
Nc1ncnc2c1ncn2[C@@H]1O[C@H](COP(=O)(O)O)[C@@H](O)[C@@H]1O,GI50,[2],> 50 µM (inactive)
same,GI50,[3],> 16.1 µM (inactive)
same,GI50,[4],> 7.93 µM (inactive)
Cc1ccc(N(Cc2ccc([N+](=O)[O-])cc2)C(=O)c2ccco2)cc1,IC50,[5],> 47.1 µM (inactive)
same,AC50,[6],28.2 µM (inconclusive)
same,EC50,[7],> 53 µM (inactive)
same,AC50,[8],0.562 µM (inconclusive)
O=NN(CCCl)C(=O)NC1CCSc2ccccc21 (stereo not given),GI50,[2],> 100 µM (inactive)
same,GI50,[3],27.9 µM (inactive)
same,GI50,[4],21.1 µM (inactive)
CN=C(S)NNC(=O)COc1cccc(C)c1C,CC50,[9],48.9 µM (active)
CC(=O)N1CCN(CC(O)COc2ccc(Br)cc2)CC1 (stereo not given),IC50,[1],159 µM (active)
COc1cc(OC)cc(-c2c(-c3cccs3)c3cc(-c4cc[nH]n4)ccc3n2C)c1,CC50,[9],11.9 µM (active)
CCOC(=O)c1ccc(N[C@@H]2c3cc4c(cc3C(c3cc(OC)c(O)c(OC)c3)[C@H]3C(=O)OCC32)OCO4)cc1O (stereo not given in full),GI50,[2],0.0887 µM (active)
same,GI50,[3],0.227 µM (active)
same,GI50,[4],< 0.01 µM (active)
C/C(N)=C(/C#N)C(=O)COC(=O)c1cc(-c2cccc3ccccc23)nc2ccccc12,CC50,[9],7.25 µM (active)
CCOC(=O)c1c(-c2ccccc2)csc1NC(=O)C(C)NCCCN1CCOCC1 (stereo not given),IC50,[1],86.1 µM (active)
CC(=O)OCC1OC(n2cc(F)c(=O)[nH]c2=O)C(NC(=O)OCc2ccccc2)C(OC(C)=O)C1OC(C)=O (stereo not given),GI50,[2],> 100 µM (inactive)
same,GI50,[3],> 100 µM (inactive)
same,GI50,[4],> 100 µM (inactive)
O=C(NCc1ccncc1)c1cc(-c2ccc(Cl)cc2)oc1C(F)(F)F,AC50,[10],18.6 µM (active)
C=CCN(C(=O)Cn1nc(C)n2c(cc3cc(C)ccc32)c1=O)c1ccccc1,CC50,[9],> 50 µM (active)
N#CC1=C(N)Oc2cc(O)c(/C=N/c3ccccc3)cc2C1c1ccccc1 (stereo not given),CC50,[9],9.1 µM (active)
[N-]=[N+]=CC(=O)OCC(N)C(=O)O (stereo not given),GI50,[2],0.206 µM (active)
same,GI50,[3],0.352 µM (active)
same,GI50,[4],0.156 µM (active)
COC(=O)c1cc(NC(S)=NCc2ccc(Cl)cc2)cc(C(=O)OC)c1,CC50,[9],26.3 µM (active)
COc1cccc2c1C(=O)c1c(O)c3c(c(O)c1C2=O)C[C@@](O)(/C(C)=N/NC(=O)c1ccccc1)C[C@@H]3OC1CC(N)C(O)C(C)O1 (stereo not given in full),GI50,[2],0.0586 µM (active)
same,GI50,[3],5.61 µM (inactive)
same,GI50,[4],0.132 µM (active)
C=C1C(=O)C[C@@]23CCC[C@@]12CC(O)C3 (stereo not given in full),GI50,[2],17 µM (inactive)
same,GI50,[3],5.15 µM (inactive)
same,GI50,[4],3.61 µM (inactive)
FC(F)(F)c1ccccc1N=C(S)N1CCc2ccccc2C1,AC50,[10],8.78 µM (active)
CCCCOc1ccc(NC(=O)CN2CCN(CC)CC2)cc1,IC50,[1],71.7 µM (active)
O=C(OCc1cccc(F)c1)c1ccc2c(=O)n3c(nc2c1)CCC3,IC50,[11],12.1 µM (active)
CCc1ccc(NC(=O)c2cc3c(C)nc4ccccc4c3o2)cc1,AC50,[12],6.51 µM (active)
same,CC50,[9],39.6 µM (active)
CCCCC(C)C1CCC2(C)C=CC(=O)C(C)=C2C1O (stereo not given),GI50,[2],> 100 µM (inactive)
same,GI50,[3],> 100 µM (inactive)
same,GI50,[4],> 100 µM (inactive)
COc1cc(C=C2C(=O)NC(=O)NC2=O)ccc1OCc1ccc([N+](=O)[O-])cc1,IC50,[1],158 µM (active)
Cc1nc(-c2ccccc2)sc1C(=O)/C=C/c1ccc(Cl)cc1,AC50,[12],4.89 µM (active)
CCOC(=O)c1ccc(NC(=O)c2cccnc2)cc1,AC50,[10],3.75 µM (active)
C/C(=N\Nc1nc(C)cc(-c2ccccc2)n1)c1ccccc1,AC50,[10],2.37 µM (active)
CC(C)CN1CCN(Cc2cccc3nccnc23)CC1CCO (stereo not given),IC50,[5],> 47.1 µM (inactive)
same,EC50,[7],> 53 µM (inactive)
COc1ccc2[nH]c3ccc4cc[n+](CCN5CCC(C6CCN(CC[n+]7ccc8ccc9[nH]c%10ccc(OC)cc%10c9c8c7)CC6)CC5)cc4c3c2c1,GI50,[2],0.417 µM (active)
same,GI50,[3],1.84 µM (inactive)
same,GI50,[4],0.546 µM (active)
CC(Sc1nnnn1-c1ccccc1)C(=O)Nc1ccccc1-c1ccccc1 (stereo not given),IC50,[5],> 47.1 µM (inactive)
same,EC50,[7],> 53 µM (inactive)
Cc1csc(N/N=C/c2ccccn2)n1,AC50,[12],11.2 µM (active)
Cc1ccc(/N=N/c2c(C)[nH]n(C(N)=S)c2=O)cc1,IC50,[11],5.24 µM (active)
CC1=CN2C(=NC(=O)CC2(C)C(=O)N(CC(=O)NC2CCCC2)c2ccccc2C)C=C1 (stereo not given),IC50,[5],> 47.1 µM (inactive)
same,EC50,[7],> 53 µM (inactive)
Cc1c2ccnc(-c3ccccc3)c2cc2c1[nH]c1ccccc12,GI50,[2],1.39 µM (inactive)
same,GI50,[3],2.63 µM (inactive)
same,GI50,[4],2.9 µM (inactive)
C[C@@H]1O[C@@H](O[C@H]2CC[C@]3(C=O)[C@H]4CC[C@]5(C)[C@@H](c6ccc(=O)oc6)CC[C@]5(O)[C@@H]4CC[C@]3(O)C2)[C@H](O)[C@H](O)[C@H]1O[C@@H]1O[C@H](CO)[C@@H](O)[C@H](O)[C@H]1O [HELLEBRIN],GI50,[2],0.0375 µM (active)
same,GI50,[3],113 µM (inactive)
same,GI50,[4],64.7 µM (inactive)
Cc1cc(C)cc(Oc2cc(NC(=O)c3cn(C)nc3C)cc([N+](=O)[O-])c2)c1,AC50,[10],13.5 µM (active)
Cc1ccc(C)c(NC(=O)Cn2cnc3c(oc4ccccc43)c2=O)c1,IC50,[5],> 47.1 µM (inactive)
same,EC50,[7],> 53 µM (inactive)
CCSc1ccc(NC(=O)c2cccnc2)cc1,AC50,[10],7.23 µM (active)
C/C(=C\c1ccc(C(=O)O)cc1)c1ccc2c(c1)C(C)(C)CCC2(C)C,AC50,[12],3.1 µM (active)
same,AC50,[13],31.6 µM (inconclusive)
Nc1ccc2[nH]c3c(-c4ccccc4)nccc3c2c1,GI50,[2],22.3 µM (inactive)
same,GI50,[3],19.9 µM (inactive)
same,GI50,[4],6.21 µM (inactive)
CCOc1ccc(CN2CCN(Cc3c[nH]c4ccccc34)CC2)cc1,AC50,[10],7.24 µM (active)
same,IC50,[1],93 µM (active)
O=C(N/N=C/c1ccccc1Cl)C1CC1,IC50,[5],> 47.1 µM (inactive)
same,EC50,[7],> 53 µM (inactive)
